Article PMC10285648, “iTAG an optimized IMiD-induced degron for targeted protein degradation in human and murine cells” (iScience, 2023)

Experiments:
FLuc-EGFP-DCD23 = assay: In vitro luciferase and EGFP signal in MDA-MB-231 (FLuc-EGFP-DCD23); assay type: cell-based, human; conditions: MDA-MB-231, in vitro
Flag-HA-DCD19-EGFP = assay: Degradation of Flag-HA-DCD19-EGFP in murine cells; assay type: cell-based, mouse; conditions: 2208L and PyMT, 24 h, western blotting
Procedure: Given the high degradation efficiency of DCD23 in human cells, we sought to test the applicability of this system in murine cells.
The protein lysates were probed for EGFP using western blotting. […] EGFP signal was then measured using flow cytometry. (3 independent experiments, normalized to the control and represented as mean ± SD). […] Data are plotted as Log2 fold change relative to DMSO versus Log10 of p value.

[1] = system: N-terminally tagged cMYC, RBM39, BRD4 (Flag-HA-DCD23 or Flag-HA-FKBP12^[F36V]); assay: Western blotting, iTAG versus dTAG fused proteins in SUM159; assay type: cell-based, human; conditions: SUM159, dTAG-13 on dTAG, CC220 on iTAG
Procedure: The fusion constructs were stably expressed in SUM159 cells and loss of protein was determined by western blotting.
The protein lysates were probed for HA using western blotting. […] The protein lysates were probed for HA using western blotting. […] Median EGFP intensity was measured in each condition using flow cytometry. (3 independent experiments, represented as mean ± SD).
The dTAG system has also been adapted to direct targets to the E3 CRL2^VHL using the PROTAC dTAG^V-1^16. […] We evaluated the degradation N-terminally tagged cMYC and RBM39 dTAG^V-1, we included BRD4 as a control as it was reported to be a well degraded target in the initial dTAG optimization (Figure 3C).[15]
For the pHAGE-PGK constructs: DCD23, SuperDegron and FKBP12^F36V were separately cloned into a pHAGE-PGK DEST backbone. cDNA encoding the indicated protein was then cloned from pENTR221 into the pHAGE-PGK-DCD23, pHAGE-PGK-SuperDegron or pHAGE-PGK-FKBPF36V DEST vector using Gateway cloning. SUM159 cells were transduced with the indicated lentivirus and selected with puromycin.
Cells were lysed with SDS lysis buffer (2% SDS, 10% Glycerol, 50mM Tris pH 6.8) and boiled at 95°C for 30min. Protein concentration was measured using Pierce BCA Protein Assay Kit (ThermoFischer) following manufacturer’s recommendations. Samples were ran in NuPAGETM 10% Bis-Tris Midi electrophoresis gels (Invitrogen) using NuPAGETM MES SDS running buffer (ThermoFischer Scientific). Proteins were subsequently transferred to an Immobilon-P polyvinylidene Difluoride (PVDF) membrane (Merck Millipore) using the wet-transfer method (Bio-Rad) in a transfer buffer consisting of 20% (v/v) methanol and 10% protein electrophoresis buffer (24.77 mM Tris and 0.192 M glycine).
For western blotting membranes were blocked in a solution of 5% (w/v) bovine serum albumin (BSA; Sigma-Aldrich) dissolved in TBS-0.1% Tween 20 (Sigma-Aldrich) then incubated at 4°C overnight with the primary antibodies diluted in 5% (w/v) BSA/TBS-T. The membranes where then washed and incubated with anti-mouse and/or anti-rabbit secondary antibodies (LI-COR Biosciences) for 2h at RT diluted in 5% (w/v) BSA/TBS-T then washed and imaged using the LI-COR Odyssey (LI-COR Biosciences). Images were analyzed using Image Studio Lite software (LI-COR Biosciences).

DCD23-EGFP-KRAS^[G12V] = assay: Western blotting for KRAS G12V and p-MEK1(T292) in HMEC; assay type: cell-based, human; conditions: 10uM, 48h
Procedure: Figure 2 Degradation of cytoplasmic and nuclear targets using iTAG (A) HMEC cells expressing N-terminally tagged DCD23-EGFP-KRAS^[G12V], DCD23-EGFP-EZH2, DCD23-EGFP-cMYC or their corresponding P2A control were induced with doxycycline for 24h then treated with either DMSO or the different indicated drugs at a concentration of 10uM for 4h. Median EGFP intensity was measured in each condition using flow cytometry and normalized values were represent in the Log2 Fold change relative to the DMSO control. (B) HMEC cells expressing Dox inducible C-terminally tagged KRAS^[G12V]-EGFP-DCD23, EZH2-EGFP-DCD23 or their corresponding P2A control were induced with doxycycline for 24h then treated with either DMSO or the different indicated drugs at a concentration of 10uM for 4h. Median EGFP intensity was measured in each condition using flow cytometry and normalized values were represent in the Log2 Fold Change relative to the DMSO control. […]
We then analyzed the functional consequences of KRAS^[G12V]-induced degradation. […] Subsequently, we analyzed the functional consequences of KRAS^[G12V]-induced degradation. […]
Cells were lysed with SDS lysis buffer (2% SDS, 10% Glycerol, 50mM Tris pH 6.8) and boiled at 95°C for 30min. Protein concentration was measured using Pierce BCA Protein Assay Kit (ThermoFischer) following manufacturer’s recommendations. […]

**Q.** How did the “lowest concentration giving decrease in luciferase and EGFP signal” value (FLuc-EGFP-DCD23) turn out when `O=C1CC[C@H](N2Cc3c(OCc4ccc(CN5CCOCC5)cc4)cccc3C2=O)C(=O)N1` [CC220, Iberdomide] was run?
**A.** ≤ 0.05 µM

**Q.** What about the “time to decrease in luciferase and EGFP signal” value (FLuc-EGFP-DCD23) of the same molecule?
**A.** ≤ 3 h

**Q.** And the “degradation of DCD19 tagged EGFP” value (Flag-HA-DCD19-EGFP)?
**A.** not degraded

**Q.** And the “concentrations at which targets are degraded” value [1]?
**A.** 0.01 to 10 µM

**Q.** And the “time of onset of degradation of cMYC and RBM39” value ([1]; 1, 2 or 4h)?
**A.** ≤ 1 h

**Q.** And the “MEK1 (T292) phosphorylation after degradation of N-terminally tagged KRAS G12V” value (DCD23-EGFP-KRAS^[G12V])?
**A.** concomitant decrease in MEK1 (T292) phosphorylation
